{
  "source": "patent US11696956B2",
  "about": "“Bicyclic peptide ligands specific for EphA2” (BicycleTx Limited, priority 2017, dated 2023)",
  "key": {"rat EphA2": {"target": "T1, rat EphA2 (Rattus norvegicus, UniProt D3ZBN3)", "T1 construct": "Rat; C-; In-house; N/A; polyHis (C); made in house", "T1 sequence (D3ZBN3 26-205)": "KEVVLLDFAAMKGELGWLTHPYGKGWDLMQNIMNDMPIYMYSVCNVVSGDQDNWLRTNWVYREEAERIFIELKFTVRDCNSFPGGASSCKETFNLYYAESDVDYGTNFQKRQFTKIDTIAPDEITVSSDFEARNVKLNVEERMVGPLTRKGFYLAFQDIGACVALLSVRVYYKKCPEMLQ", "assay": "FP competition binding (Study 2, alternative protocol)", "details": "summary of Table 10"}, "Mouse EphA2": {"target": "T2, Mouse EphA2 (Mus musculus, UniProt Q03145)", "T2 construct": "EphA2 (Ecto); Mouse; C-; Sino; 50586-M08H; polyHis (C); purchased Sino Biological 50586-M08H", "T2 sequence (Q03145 26-538 limits assumed)": "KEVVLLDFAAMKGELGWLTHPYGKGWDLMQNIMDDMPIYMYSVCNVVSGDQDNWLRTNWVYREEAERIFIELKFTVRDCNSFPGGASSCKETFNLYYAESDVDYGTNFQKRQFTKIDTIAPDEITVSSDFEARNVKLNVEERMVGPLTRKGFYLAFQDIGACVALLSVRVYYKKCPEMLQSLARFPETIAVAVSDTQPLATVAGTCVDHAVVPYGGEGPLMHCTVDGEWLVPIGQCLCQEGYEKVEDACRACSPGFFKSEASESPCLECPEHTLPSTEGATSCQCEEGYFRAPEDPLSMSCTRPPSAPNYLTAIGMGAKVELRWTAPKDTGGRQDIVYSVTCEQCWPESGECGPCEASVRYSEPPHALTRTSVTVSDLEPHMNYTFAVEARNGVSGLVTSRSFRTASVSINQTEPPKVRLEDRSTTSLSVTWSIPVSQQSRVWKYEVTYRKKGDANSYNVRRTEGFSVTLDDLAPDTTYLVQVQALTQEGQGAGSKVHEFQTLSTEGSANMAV", "assay": "FP competition binding (Study 2, alternative protocol)", "details": "summary of Table 10"}, "PC-3 xenograft": {"tested_on": "PC-3 xenograft", "assay": "Study 8: in vivo efficacy, PC-3 xenograft", "details": "qw", "experimental": "The major endpoint was to see if the tumor growth could be delayed or mice could be cured. Tumor volume was measured three times weekly in two dimensions using a caliper, and the volume was expressed in mm^3 using the formula: V=0.5 a×b^2 where a and b are the long and short diameters of the tumor, respectively. The tumor size was then used for calculations of T/C value. The T/C value (in percent) is an indication of antitumor effectiveness; T and C are the mean volumes of the treated and control groups, respectively, on a given day. TGI was calculated for each group using the formula: TGI (%)=[1−(Ti−T0)/(Vi−V0)]×100; Ti is the average tumor volume of a treatment group on a given day, T0 is the average tumor volume of the treatment group on the day of treatment start, Vi is the average tumor volume of the vehicle control group on the same day with Ti, and V0 is the average tumor volume of the vehicle group on the day of treatment start.\nA one-way ANOVA was performed to compare tumor volume among groups, and when a significant F-statistics (a ratio of treatment variance to the error variance) was obtained, comparisons between groups were carried out with Games-Howell test. […] P<0.05 was considered to be statistically significant.\nThe tumor cells were maintained in F-12K medium supplemented with 10% heat inactivated fetal bovine serum at 37° C. in an atmosphere of 5% CO2 in air. The tumor cells were routinely subcultured twice weekly. The cells growing in an exponential growth phase were harvested and counted for tumor inoculation.\n52 animals were randomized when the average tumor volume reached 454 mm^3.\nTumor growth inhibition rate for test articles in the PC-3 xenograft model was calculated based on tumor volume measurements at day 20 after the start of the treatment."}, "Human EphA2": {"target": "T3, Human EphA2 (Homo sapiens, UniProt P29317)", "T3 construct": "EphA2 (Ecto); Human; C-terminal; R&D systems; 3035-A2; polyHis (C); purchased R&D systems 3035-A2", "T3 sequence (P29317 24-537 limits assumed)": "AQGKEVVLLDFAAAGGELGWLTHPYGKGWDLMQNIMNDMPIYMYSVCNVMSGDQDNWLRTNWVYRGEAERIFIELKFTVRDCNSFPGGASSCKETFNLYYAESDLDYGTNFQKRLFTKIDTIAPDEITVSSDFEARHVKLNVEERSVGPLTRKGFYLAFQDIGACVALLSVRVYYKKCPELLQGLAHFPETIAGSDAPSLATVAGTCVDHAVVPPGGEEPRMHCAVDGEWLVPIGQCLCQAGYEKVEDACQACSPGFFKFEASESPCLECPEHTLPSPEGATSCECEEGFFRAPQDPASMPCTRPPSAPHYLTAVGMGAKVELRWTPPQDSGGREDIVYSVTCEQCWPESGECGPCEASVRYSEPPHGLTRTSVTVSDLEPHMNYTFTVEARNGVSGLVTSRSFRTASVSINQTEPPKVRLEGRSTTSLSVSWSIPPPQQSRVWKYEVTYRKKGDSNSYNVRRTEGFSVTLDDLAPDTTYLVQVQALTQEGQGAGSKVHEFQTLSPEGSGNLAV", "assay": "FP competition binding (Study 2, alternative protocol)", "details": "summary of Table 10"}},
  "data": [
    {"compound": "(β-Ala)-Sar10-A(HArg)DCPLVNPLCLHPGVVTC [Compound 67]", "values": [
      {"measurement": "binding to rat EphA2", "setting": "rat EphA2", "result": "bind with high affinity"},
      {"measurement": "binding to mouse EphA2", "setting": "Mouse EphA2", "result": "bind with high affinity"}
    ]},
    {"compound": "(β-Ala)-Sar10-A(HArg)DC(HyP)LVNPLCLHP(D-Asp)W(HArg)C [Compound 66]", "values": [
      {"measurement": "binding to rat EphA2", "setting": "rat EphA2", "result": "bind with high affinity"},
      {"measurement": "binding to mouse EphA2", "setting": "Mouse EphA2", "result": "bind with high affinity"}
    ]},
    {"compound": "CC(=O)O[C@@]12CO[C@@H]1C[C@H](O)[C@@]1(C)C(=O)[C@H](O)C3=C(C)[C@@H](OC(=O)[C@H](O)[C@@H](NC(=O)OC(C)(C)C)c4ccccc4)C[C@@](O)([C@@H](OC(=O)c4ccccc4)[C@H]21)C3(C)C", "note": "[Docetaxel]", "values": [
      {"measurement": "animal body weight loss", "setting": "PC-3 xenograft; 15 mg/kg", "result": "severe animal body weight loss"},
      {"measurement": "TGI", "setting": "PC-3 xenograft; 15 mg/kg, day 20", "result": 101.8, "unit": "%"},
      {"measurement": "TV (tumor volume)", "setting": "PC-3 xenograft; 15 mg/kg, day 20", "result": 419, "unit": "mm^3"},
      {"measurement": "Mean tumor volume", "setting": "PC-3 xenograft; 15 mpk, day 0", "result": "453 ± 62", "unit": "mm^3"},
      {"measurement": "Mean tumor volume", "setting": "PC-3 xenograft; 15 mpk, day 2", "result": "584 ± 72", "unit": "mm^3"},
      {"measurement": "Mean tumor volume", "setting": "PC-3 xenograft; 15 mpk, day 4", "result": "632 ± 56", "unit": "mm^3"},
      {"measurement": "Mean tumor volume", "setting": "PC-3 xenograft; 15 mpk, day 6", "result": "636 ± 48", "unit": "mm^3"},
      {"measurement": "Mean tumor volume", "setting": "PC-3 xenograft; 15 mpk, day 8", "result": "568 ± 50", "unit": "mm^3"},
      {"measurement": "Mean tumor volume", "setting": "PC-3 xenograft; 15 mpk, day 10", "result": "408 ± 31", "unit": "mm^3"},
      {"measurement": "Mean tumor volume", "setting": "PC-3 xenograft; 15 mpk, day 13", "result": "374 ± 26", "unit": "mm^3"},
      {"measurement": "Mean tumor volume", "setting": "PC-3 xenograft; 15 mpk, day 15", "result": "388 ± 36", "unit": "mm^3"},
      {"measurement": "Mean tumor volume", "setting": "PC-3 xenograft; 15 mpk, day 17", "result": "361 ± 25", "unit": "mm^3"},
      {"measurement": "Mean tumor volume", "setting": "PC-3 xenograft; 15 mpk, day 20", "result": "419 ± 31", "unit": "mm^3"},
      {"measurement": "T/C", "setting": "PC-3 xenograft; 15 mpk, day 20", "result": 17.7, "unit": "%"},
      {"measurement": "TGI", "setting": "PC-3 xenograft; 15 mpk, day 20", "result": 101.8, "unit": "%"},
      {"measurement": "Tumor Volume", "setting": "PC-3 xenograft; 15 mpk, day 20, Mean ± SEM", "result": "419 ± 31", "unit": "mm^3"}
    ]},
    {"compound": "Ac-CPLVNPLCLHPGVVTCLHG-Sar6-(D-K) [Compound 77]", "values": [
      {"measurement": "binding to human EphA2", "setting": "Human EphA2", "result": "binds"},
      {"measurement": "binding to mouse EphA2", "setting": "Mouse EphA2", "result": "binds"}
    ]}
  ]
}
